Data taken from patent US20230143604A1, “QW DOSING OF GIP RECEPTOR AGONIST PEPTIDE COMPOUNDS AND USES THEREOF” (TAKEDA PHARMACEUTICAL COMPANY LIMITED, priority 2020, published 2023).
Starred links: 1 amine or outer side, 2 acyl side, 3 side chain; linkers in the order of their positions; H or OH if unused. Non-standard residues stand in square brackets, D forms with d. Residues, ends and D or L forms follow the SMILES beside them. Groups on a side chain read outwards from the residue. *: point of attachment. C18 diacid = O=C(O)CCCCCCCCCCCCCCCCC(=O)*; γGlu = O=C(O)[C@H](CCC(=O)[*:2])N[*:1]; NMeY = CN[C@@H](Cc1ccc(O)cc1)C(=O)O; AEEA = NCCOCCOCC(=O)O; Aib = CC(C)(N)C(=O)O

Test: physchem
In short: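 Solubility at pH 7.4 determined by stepwise addition of 200 mM phosphate buffer in 100 μL increments to 3 mg peptide, mixing briefly each time, until no insoluble material remained, then measured by liquid chromatography.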

[1] = pH 7.4, aqueous buffer, pH 7.4 Phosphate Buffer - Solubility, 200 mM Phosphate buffer pH 7.4
[2] = pH 7.4, solubility in phosphate buffer at pH 7.4, 200 mM phosphate buffer pH 7.4

Structure (SMILES) | solubility (pH 7.4) [mg/mL] | solubility (pH 7.4, aqueous buffer) [mg/mL] | solubility [1] [mg/mL] | solubility [2] [mg/mL]
CC[C@H](C)[C@H](NC(=O)[C@H](CO)NC(=O)[C@H](Cc1ccc(O)cc1)NC(=O)[C@H](CC(=O)O)NC(=O)[C@H](CO)NC(=O)[C@@H](NC(=O)[C@H](Cc1ccccc1)NC(=O)[C@@H](NC(=O)CNC(=O)[C@H](CCC(=O)O)NC(=O)C(C)(C)NC(=O)[C@H](Cc1ccc(O)cc1)NC)[C@@H](C)O)[C@@H](C)CC)C(=O)N[C@@H](C)C(=O)N[C@@H](CCCCNC(=O)CNC(=O)CNC(=O)CNC(=O)CNC(=O)CC[C@H](NC(=O)CCCCCCCCCCCCCCCCC(=O)O)C(=O)O)C(=O)N[C@@H](CC(=O)O)C(=O)N[C@@H](CO)C(=O)NC(C)(C)C(=O)N[C@@H](C)C(=O)N[C@@H](CCC(N)=O)C(=O)NC(C)(C)C(=O)N[C@@H](CC(=O)O)C(=O)N[C@@H](Cc1ccccc1)C(=O)N[C@H](C(=O)N[C@@H](CC(N)=O)C(=O)N[C@@H](Cc1c[nH]c2ccccc12)C(=O)N[C@@H](CC(C)C)C(=O)N[C@@H](CC(C)C)C(=O)N[C@@H](C)C(=O)N[C@@H](CCC(N)=O)C(=O)N[C@@H](CCCCN)C(=O)NCC(=O)O)C(C)C [Compound 79] (H-[NMeY][Aib]EGTFISDYSIAK([Gly-Gly-Gly-Gly-γGlu-C18 diacid])DS[Aib]AQ[Aib]DFVNWLLAQKG-OH) | ≥ 15 | ≥ 30 | – | –
CC[C@H](C)[C@H](NC(=O)[C@H](CO)NC(=O)[C@H](Cc1ccc(O)cc1)NC(=O)[C@H](CC(=O)O)NC(=O)[C@H](CO)NC(=O)[C@@H](NC(=O)[C@H](Cc1ccccc1)NC(=O)[C@@H](NC(=O)CNC(=O)[C@H](CCC(=O)O)NC(=O)C(C)(C)NC(=O)[C@H](Cc1ccc(O)cc1)NC)[C@@H](C)O)[C@@H](C)CC)C(=O)N[C@@H](C)C(=O)N[C@@H](CCCCNC(=O)CNC(=O)CNC(=O)CNC(=O)CNC(=O)CC[C@H](NC(=O)CCCCCCCCCCCCCCCCC(=O)O)C(=O)O)C(=O)N[C@@H](CC(=O)O)C(=O)N[C@@H](CCCNC(=N)N)C(=O)NC(C)(C)C(=O)N[C@@H](C)C(=O)N[C@@H](CCC(N)=O)C(=O)NC(C)(C)C(=O)N[C@@H](CC(=O)O)C(=O)N[C@@H](Cc1ccccc1)C(=O)N[C@H](C(=O)N[C@@H](CC(N)=O)C(=O)N[C@@H](Cc1c[nH]c2ccccc12)C(=O)N[C@@H](CC(C)C)C(=O)N[C@@H](CC(C)C)C(=O)N[C@@H](C)C(=O)N[C@@H](CCC(N)=O)C(=O)N[C@@H](CCCCN)C(=O)NCC(=O)O)C(C)C [Compound 80] (H-[NMeY][Aib]EGTFISDYSIAK([Gly-Gly-Gly-Gly-γGlu-C18 diacid])DR[Aib]AQ[Aib]DFVNWLLAQKG-OH) | ≥ 15 | ≥ 30 | – | –
CC[C@H](C)[C@H](NC(=O)[C@H](Cc1ccccc1)NC(=O)[C@@H](NC(=O)CNC(=O)[C@H](CCC(=O)O)NC(=O)C(C)(C)NC(=O)[C@H](Cc1ccc(O)cc1)NC)[C@@H](C)O)C(=O)N[C@@H](CO)C(=O)N[C@@H](CC(=O)O)C(=O)N[C@@H](Cc1ccc(O)cc1)C(=O)N[C@@H](CO)C(=O)N[C@H](C(=O)NC(C)(C)C(=O)N[C@@H](CC(C)C)C(=O)N[C@@H](CC(=O)O)C(=O)N[C@@H](CCCNC(=N)N)C(=O)NC(C)(C)C(=O)N[C@@H](C)C(=O)N[C@@H](CCC(N)=O)C(=O)NC(C)(C)C(=O)N[C@@H](CCCCNC(=O)COCCOCCNC(=O)COCCOCCNC(=O)CC[C@H](NC(=O)CC[C@H](NC(=O)CCCCCCCCCCCCCCCCC(=O)O)C(=O)O)C(=O)O)C(=O)N[C@@H](Cc1ccccc1)C(=O)N[C@H](C(=O)N[C@@H](CC(N)=O)C(=O)N[C@@H](Cc1c[nH]c2ccccc12)C(=O)N[C@@H](CC(C)C)C(=O)N[C@@H](CC(C)C)C(=O)N[C@@H](C)C(=O)N[C@@H](CCC(N)=O)C(=O)N[C@@H](CO)C(=O)N1CCC[C@H]1C(=O)NCC(=O)O)C(C)C)[C@@H](C)CC [Compound 85] (H-[NMeY][Aib]EGTFISDYSI[Aib]LDR[Aib]AQ[Aib]K([AEEA-AEEA-γGlu-γGlu-C18 diacid])FVNWLLAQSPG-OH) | ≥ 15 | ≥ 30 | – | –
CC[C@H](C)[C@H](NC(=O)[C@H](CO)NC(=O)[C@H](Cc1ccc(O)cc1)NC(=O)[C@H](CC(=O)O)NC(=O)[C@H](CO)NC(=O)[C@@H](NC(=O)[C@H](Cc1ccccc1)NC(=O)[C@@H](NC(=O)CNC(=O)[C@H](CCC(=O)O)NC(=O)C(C)(C)NC(=O)[C@H](Cc1ccc(O)cc1)NC)[C@@H](C)O)[C@@H](C)CC)C(=O)N[C@@H](C)C(=O)N[C@@H](CC(C)C)C(=O)N[C@@H](CC(=O)O)C(=O)N[C@@H](CCCNC(=N)N)C(=O)NC(C)(C)C(=O)N[C@@H](C)C(=O)N[C@@H](CCC(N)=O)C(=O)NC(C)(C)C(=O)N[C@@H](CCCCNC(=O)COCCOCCNC(=O)COCCOCCNC(=O)CC[C@H](NC(=O)CC[C@H](NC(=O)CCCCCCCCCCCCCCCCC(=O)O)C(=O)O)C(=O)O)C(=O)N[C@@H](Cc1ccccc1)C(=O)N[C@H](C(=O)N[C@@H](CC(N)=O)C(=O)N[C@@H](Cc1c[nH]c2ccccc12)C(=O)N[C@@H](CC(C)C)C(=O)N[C@@H](CC(C)C)C(=O)N[C@@H](C)C(=O)N[C@@H](CCC(N)=O)C(=O)N[C@@H](CO)C(=O)N1CCC[C@H]1C(=O)NCC(=O)O)C(C)C [Compound 86] (H-[NMeY][Aib]EGTFISDYSIALDR[Aib]AQ[Aib]K([AEEA-AEEA-γGlu-γGlu-C18 diacid])FVNWLLAQSPG-OH) | ≥ 15 | ≥ 30 | – | –
CC[C@H](C)[C@H](NC(=O)[C@H](Cc1ccccc1)NC(=O)[C@@H](NC(=O)CNC(=O)[C@H](CCC(=O)O)NC(=O)C(C)(C)NC(=O)[C@H](Cc1ccc(O)cc1)NC)[C@@H](C)O)C(=O)N[C@@H](CO)C(=O)N[C@@H](CC(=O)O)C(=O)N[C@@H](Cc1ccc(O)cc1)C(=O)N[C@@H](CO)C(=O)N[C@H](C(=O)NC(C)(C)C(=O)N[C@@H](CC(C)C)C(=O)N[C@@H](CC(=O)O)C(=O)N[C@@H](CCCNC(=N)N)C(=O)NC(C)(C)C(=O)N[C@@H](CCCCNC(=O)COCCOCCNC(=O)COCCOCCNC(=O)CC[C@H](NC(=O)CC[C@H](NC(=O)CCCCCCCCCCCCCCCCC(=O)O)C(=O)O)C(=O)O)C(=O)N[C@@H](CCC(N)=O)C(=O)NC(C)(C)C(=O)N[C@@H](CC(=O)O)C(=O)N[C@@H](Cc1ccccc1)C(=O)N[C@H](C(=O)N[C@@H](CC(N)=O)C(=O)N[C@@H](Cc1c[nH]c2ccccc12)C(=O)N[C@@H](CC(C)C)C(=O)N[C@@H](CC(C)C)C(=O)N[C@@H](C)C(=O)N[C@@H](CCC(N)=O)C(=O)N[C@@H](CO)C(=O)N1CCC[C@H]1C(=O)NCC(=O)O)C(C)C)[C@@H](C)CC [Compound 87] (H-[NMeY][Aib]EGTFISDYSI[Aib]LDR[Aib]K([AEEA-AEEA-γGlu-γGlu-C18 diacid])Q[Aib]DFVNWLLAQSPG-OH) | ≥ 15 | ≥ 30 | – | –
CC[C@H](C)[C@H](NC(=O)[C@H](Cc1ccccc1)NC(=O)[C@@H](NC(=O)CNC(=O)[C@H](CCC(=O)O)NC(=O)C(C)(C)NC(=O)[C@H](Cc1ccc(O)cc1)NC)[C@@H](C)O)C(=O)N[C@@H](CO)C(=O)N[C@@H](CC(=O)O)C(=O)N[C@@H](Cc1ccc(O)cc1)C(=O)N[C@@H](CO)C(=O)N[C@H](C(=O)NC(C)(C)C(=O)N[C@@H](CC(C)C)C(=O)N[C@@H](CC(=O)O)C(=O)N[C@@H](CCCNC(=N)N)C(=O)NC(C)(C)C(=O)N[C@@H](C)C(=O)N[C@@H](CCC(N)=O)C(=O)NC(C)(C)C(=O)N[C@@H](CCCCNC(=O)COCCOCCNC(=O)COCCOCCNC(=O)CC[C@H](NC(=O)CC[C@H](NC(=O)CCCCCCCCCCCCCCCCC(=O)O)C(=O)O)C(=O)O)C(=O)N[C@@H](Cc1ccccc1)C(=O)N[C@H](C(=O)N[C@@H](CC(N)=O)C(=O)N[C@@H](Cc1c[nH]c2ccccc12)C(=O)N[C@@H](CC(C)C)C(=O)N[C@@H](CC(C)C)C(=O)N[C@@H](C)C(=O)N[C@@H](CCC(N)=O)C(=O)N[C@@H](CCCNC(=N)N)C(=O)N1CCC[C@H]1C(=O)N[C@@H](CO)C(=O)N[C@@H](CO)C(=O)NCC(=O)N[C@@H](C)C(=O)N1CCC[C@H]1C(=O)N1CCC[C@H]1C(=O)N1CCC[C@H]1C(=O)N[C@@H](CO)C(N)=O)C(C)C)[C@@H](C)CC [Compound 89] (H-[NMeY][Aib]EGTFISDYSI[Aib]LDR[Aib]AQ[Aib]K([AEEA-AEEA-γGlu-γGlu-C18 diacid])FVNWLLAQRPSSGAPPPS-NH2) | – | – | ≥ 60 | ≥ 15
CC[C@H](C)[C@H](NC(=O)[C@H](Cc1ccccc1)NC(=O)[C@@H](NC(=O)CNC(=O)[C@H](CCC(=O)O)NC(=O)C(C)(C)NC(=O)[C@H](Cc1ccc(O)cc1)NC)[C@@H](C)O)C(=O)N[C@@H](CO)C(=O)N[C@@H](CC(=O)O)C(=O)N[C@@H](Cc1ccc(O)cc1)C(=O)N[C@@H](CO)C(=O)N[C@H](C(=O)NC(C)(C)C(=O)N[C@@H](CC(C)C)C(=O)N[C@@H](CC(=O)O)C(=O)N[C@@H](CCCNC(=N)N)C(=O)NC(C)(C)C(=O)N[C@@H](C)C(=O)N[C@@H](CCC(N)=O)C(=O)NC(C)(C)C(=O)N[C@@H](CCCCNC(=O)COCCOCCNC(=O)COCCOCCNC(=O)CC[C@H](NC(=O)CC[C@H](NC(=O)CCCCCCCCCCCCCCCCC(=O)O)C(=O)O)C(=O)O)C(=O)N[C@@H](Cc1ccccc1)C(=O)N[C@H](C(=O)N[C@@H](CC(N)=O)C(=O)N[C@@H](Cc1c[nH]c2ccccc12)C(=O)N[C@@H](CC(C)C)C(=O)N[C@@H](CC(C)C)C(=O)N[C@@H](C)C(=O)N[C@@H](CCC(N)=O)C(=O)N[C@@H](CO)C(=O)N1CCC[C@H]1C(=O)N[C@@H](CO)C(=O)N[C@@H](CO)C(=O)NCC(=O)N[C@@H](C)C(=O)N1CCC[C@H]1C(=O)N1CCC[C@H]1C(=O)N1CCC[C@H]1C(=O)N[C@@H](CO)C(N)=O)C(C)C)[C@@H](C)CC [Compound 90] (H-[NMeY][Aib]EGTFISDYSI[Aib]LDR[Aib]AQ[Aib]K([AEEA-AEEA-γGlu-γGlu-C18 diacid])FVNWLLAQSPSSGAPPPS-NH2) | – | – | ≥ 60 | ≥ 15
